Measurements reported in patent US10172356B2, “Bipyridine compound and use of same for noxious arthropod control” (Sumitomo Chemical Company, Limited, priority 2015, dated 2019).

What was measured:
Assay type in all cases: in vivo
[1] = test system: cotton aphid (Aphis gossypii); experiment: Comparative Experiment 3 (method of Test Example 3: cotton aphid, irrigation, 200 ppm); settings: cotton aphid on cucumber seedling, irrigation into plant foot, 200 ppm (method of Test Example 3)
Experimental: Cucumber seedling (on the developmental stage of the second true leaf) was planted in a polyethylene cup, and the diluted solutions 5 mL were irrigated into the plant foot, and the plants were held at 25° C. in a greenhouse for 7 days. Approximately 30 heads of cotton aphid (Aphis gossypii) (all stages of life) were inoculated onto the cucumber leaves and the plants were held in a greenhouse for additional 6 days, and then the number of the surviving […] parasitic on the cucumber leaves was examined and the controlling value was calculated by the following equation. Controlling value (%)={1-(Cb×Tai)/(Cai×Tb)}×100 wherein the symbols in the formula represent the following descriptions. Cb: Number of the insects before treatment in untreated area; Cai: Number of the surviving parasitic insects at the time of the investigation in untreated area; Tb: Number of the insects before treatment in treated area; Tai: Number of the surviving parasitic insects at the time of the investigation in treated area; Here the “untreated area” represents an area that was sprayed by a diluted solution of the formulation described in the Formulation Example 5 without the compound A with water in the same amount as that of the treated area. […] Here A represents 100%, B represents 90 to 99%, C represents 60 to 89%, D represents 30 to 59% and represents 0 to 29% as a control value.

[2] = test system: cabbage moth (Plutella xylostella); experiment: Test Example 8: cabbage moth on sprayed cabbage, 200 ppm; settings: 120 h, 20 mL/cup sprayed on cabbage, second instar larvae, after 5 days, 25° C., read-out: Mortality of insects
Experimental: (§1) Each of the compounds S-7, S-8, S-9, S-10, and O-2 was made to a formulation according to a similar method to that described in the Formulation example 5 and was then diluted with water so that each of the active ingredient concentration was set to 200 ppm to prepare each of the diluted solution.
A cabbage in the third leaf stage was planted in a polyethylene cup, and thereto was sprayed the diluted solution in a ratio of 20 mL/cup. After the above-mentioned dilutions were dried, and the stem and leaf thereof was cut and then was installed in a 50 mL cup, and five heads of cabbage moth (Plutella xylostella) at the second instar larval stages were released into the cup and the cup was covered with the lid. The cup was held at 25° C. and after 5 days, the number of died insects was counted and the mortality insects was calculated by the following equation. Mortality of insects (%)=(Number of dead insects/Number of tested insects)×100

[3] = test system: western corn rootworm (Diabrotica virgifera virgifera); experiment: Test Example 10: western corn rootworm on corn seedling immersed in diluted solution, 500 ppm; settings: 120 h, corn seedling immersed 30 seconds, second instar larvae, after 5 days, 25° C., read-out: Mortality of insects
Experimental: The compound S-1 was mixed with a mixed solution of acetone and polyoxyethylene sorbitan mono-cocoate (acetone and polyoxyethylene sorbitan mono-cocoate=95 : 5 (weight ratio)) a ratio of 50 μL of the mixed solution per 1 mg of the compound S-1, and the resulting mixtures were then diluted with ion-exchange water containing 0.03% by volume of shindain (registered trademark, manufactured by Sumitomo Chemical Co. Ltd.) so that the concentration of the compound S-1 was set to 500 ppm to prepare the diluted solution of the compound S-1.
Corns (Xea mays) were sown on a tray overlaid with damped KimWipes (registered trademark). After corns were grown for 5 days, the entire seedling of the corn was immersed into the diluted solution for 30 seconds. After the seedling was dried, two grains of the seedling were installed in a plastic petri dish ([…]), and ten heads of western corn rootworm (Diabrotica virgifera virgifera) at the second instar larval stages were released onto the petri dish and the petri dish was covered with the lid. The petri dish was held at 25° C. and after 5 days, the number of died insects was counted and the mortality of insects was calculated by the following equation. Mortality of insects (%)=(Number of dead insects/Number of tested insects)×100
Similarly, using the compounds S-2, S-3, S-7, S-10, O-1 and O-2 instead of the compound S-1, the tests were carried out.

[4] = test system: cabbage moth (Plutella xylostella); experiment: Test Example 7: cabbage moth on sprayed cabbage, 500 ppm; settings: 120 h, 20 mL/cup sprayed on cabbage, second instar larvae, after 5 days, 25° C., read-out: Mortality of insects
Experimental: as §1, with “compounds S-1, S-5,” for “compounds”, “S-10, O-1,” for “S-10,”, “500” for “200”
A cabbage in the third leaf stage was planted in a polyethylene cup, and thereto was sprayed the diluted solution in ratio 20 mL/cup. After the above-mentioned dilutions were dried, and the stem and leaf thereof was cut and then was stalled in a 50 mL cup, and five heads of cabbage moth (Plutella xylostella) at the second instar larval stages were released into the cup and the cup was covered with the lid. The cup was held at 25° C. and after 5 days, the number of died insects was counted and the mortality of insects was calculated by the following equation. Mortality of insects (%)=(Number of dead insects/Number of tested insects)×100

[5] = test system: female adult housefly (Musca domestica); experiment: whole plant or invertebrate; settings: 24 h, read-out: Mortality of insects
Experimental: Each of the compounds S-2, S-3, S-7, S-8, and N-1 was made to a formulation according to a similar method to that described in the Formulation example 5 and was then diluted with water so that each of the active ingredient concentration was set to 500 ppm to prepare each of the diluted solution.
The bottom of the polyethylene cup having 5.5 cm diameter was matted with the same size of a filter paper, and 0.7 mL of the diluted solution was added dropwise to the filter paper and 30 mg sucrose as bait was placed in the cup uniformly. Ten (10) heads of female adult housefly (Musca domestica) were released into the polyethylene cup and the cup was covered with the lid. After 24 hours, the life and death of housefly was examined and the number of died insects was counted and the mortality of insects was calculated by the following equation. Mortality of insects (%)=(Number of dead insects/Number of tested insects)×100

[6] = test system: cotton aphid (Aphis gossypii); experiment: Comparative Experiment 2 (method of Test Example 2: cotton aphid, spray, 200 ppm); settings: cotton aphid on cucumber seedling, 200 ppm (method of Test Example 2)
Experimental: Cucumber seedling (on the developmental stage of the first true leaf) was planted in a polyethylene cup and 30 heads of cotton aphid (Aphis gossypii) (all stages of life) were released onto the leaves of the cucumber and allowed to stand for 1 day. The diluted solutions 20 mL were sprayed into the seedling. Cucumber (cv; Sagami-hanjiro-fushinari) was grown in a polyethylene cup until the first true leaf was developed. Approximately 30 heads of cotton aphid (Aphis gossypii) (including the adults and the larvae) was released onto the leaves of the […] and next day, the above-mentioned testing drug dilutions 20 mL were sprayed. After 6 days, the number of the surviving insects that were parasitic on the leaves of the cucumber was examined and the controlling value was calculated by the following equation. Controlling value (%)={1-(Cb×Tai)/(Cai×Tb)}×100 wherein the symbols in the formula represent the following descriptions. Cb: Number of the insects before treatment in untreated area; Cai: Number of the surviving parasitic insects at the time of the investigation in untreated area; Tb: Number of the insects before treatment in treated area; Tai: Number of the surviving parasitic insects at the time of the investigation in treated area; Here the “untreated area” represents an area that was sprayed by a diluted solution of the formulation described in the Formulation Example 5 without the compound A with water in the same amount as that of the treated area. […] Here A represents 100%, B represents 90 to 99%, C represents 60 to 89%, D represents 30 to 59% and represents 0 to 29% as a control value.

[7] = test system: brown planthopper (Nilaparvata lugens); experiment: Comparative Experiment 5 (method of Test Example 5: brown planthopper, spray, 200 ppm); settings: brown planthopper on rice seedling, 200 ppm (method of Test Example 5)
Experimental: Rice seedling (on the developmental stage of the second true leaf) was planted in a polyethylene cup, and the diluted solutions 10 mL were sprayed. After air drying, 20 heads of 3rd to 4th instar larvae of brown planthopper (Nilaparvata lugens) were released onto the rice leaves and the plants were held at 25° C. in a greenhouse. After 6 days, the number of the surviving insects that were parasitic on the leaves of the rice was examined and the controlling value was calculated by the following equation. Controlling value (%)={1-(Cb×Tai)/(Cai×Tb)}×100 wherein the symbols in the formula represent the following descriptions. Cb: Number of the insects before treatment in untreated area; Cai: Number of the surviving parasitic insects at the time of the investigation in untreated area; Tb: Number of the insects before treatment in treated area; Tai: Number of the surviving parasitic insects at the time of the investigation in treated area; Here the “untreated area” represents an area that was sprayed by a diluted solution of the formulation described in the Formulation Example 5 without the compound A with water in the same amount as that of the treated area. […] Here A represents 100%, B represents 90 to 99%, C represents 60 to 89%, D represents 30 to 59% and represents 0 to 29% as a control value.

| SMILES | control value, Comparative Experiment 3 [1] | mortality at 200 ppm [2] [%] | mortality at 500 ppm [3] [%] | mortality at 500 ppm [4] [%] | mortality at 500 ppm [5] [%] | control value, Comparative Experiment 2 [6] | control value, Comparative Experiment 5 [7] |
| --- | --- | --- | --- | --- | --- | --- | --- |
| CCS(=O)(=O)c1cccnc1-c1ccc(SC(F)(F)F)cn1 [Compound S-7] | A (A represents 100%) | ≥ 80 | ≥ 80 | ≥ 80 | 100 | A (A represents 100%) | A (A represents 100%) |
| CCS(=O)(=O)c1cccnc1-c1ccc([S+]([O-])C(F)(F)F)cn1 (centres unmarked) [Compound S-8] | A (A represents 100%) | – | – | – | – | A (A represents 100%) | A (A represents 100%) |
| CCS(=O)(=O)c1cccnc1-c1ccc(SCC(F)(F)F)cn1 [Compound S-1] | B (B represents 90 to 99%) | – | – | ≥ 80 | – | A (A represents 100%) | A (A represents 100%) |
| [O-][S+](c1ccc(-c2ccc(C(F)(F)F)cc2Cl)nc1)C(F)(F)F (centres unmarked) [Compound V-12, reference compound] | E (represents 0 to 29% as a control value) | – | – | – | – | E (represents 0 to 29% as a control value) | E (represents 0 to 29% as a control value) |
| FC(F)(F)CSc1ccc(-c2ccc(C(F)(F)F)cc2)nc1 [Compound V-7, reference compound] | E (represents 0 to 29% as a control value) | – | – | – | – | E (represents 0 to 29% as a control value) | D (D represents 30 to 59%) |
| CCS(=O)(=O)c1cccnc1-c1ccc(SCC(F)(F)C(F)(F)F)cn1 [Compound S-4] | – | – | ≥ 80 | – | – | – | – |
| CCS(=O)(=O)c1cccnc1-c1ccc(OS(=O)(=O)C(F)(F)F)cn1 [Compound O-1] | – | – | ≥ 80 | ≥ 80 | – | – | – |
| CCS(=O)(=O)c1cccnc1-c1ccc(OS(=O)(=O)CC(F)(F)F)cn1 [Compound O-2] | – | ≥ 80 | ≥ 80 | ≥ 80 | – | – | – |
| FC(F)(F)Sc1ccc(-c2ccc(C(F)(F)F)cc2Cl)nc1 [Compound V-11, reference compound] | E (represents 0 to 29% as a control value) | – | – | – | – | E (represents 0 to 29% as a control value) | E (represents 0 to 29% as a control value) |
